Consider four compounds from US8258140B2 (Astrazeneca AB, priority 2009, dated 2012).

This assay has as its target T1, isolated rat AR-LBD (Rattus norvegicus, UniProt P15207).
T1 construct: purchased Invitrogen PV4293
T1 sequence (P15207 651-882 limits assumed): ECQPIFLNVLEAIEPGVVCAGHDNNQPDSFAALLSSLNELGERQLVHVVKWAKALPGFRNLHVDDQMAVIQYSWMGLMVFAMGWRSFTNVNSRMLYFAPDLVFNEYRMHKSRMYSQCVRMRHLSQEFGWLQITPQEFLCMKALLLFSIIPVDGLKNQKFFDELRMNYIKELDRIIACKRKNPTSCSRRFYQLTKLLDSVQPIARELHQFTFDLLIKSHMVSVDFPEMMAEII
Nature of the assay: Androgen Receptor Ligand Binding Domain Competitive Binding Assay (fluorescence polarisation, PolarScreen). To be noted: FP, 12 nM AR-LBD, 2 nM fluormone, 4-6 hours at room temperature, 50% reduction in tracer binding; read-out: Androgen Receptor Ligand Binding Domain Competitive Binding Assay (b) IC50/μM. Here is the method: The ability of compounds to bind to isolated Androgen Receptor Ligand binding domain (AR-LBD) was assessed in competition assays using a Fluorescence Polarisation (FP) detection end-point.
For the FP test, an assay test kit was purchased from Invitrogen and used to measure compound binding to the isolated rat AR-LBD which shares 100% sequence identity to the human AR-LBD. The Invitrogen PolarScreen™ Androgen Receptor Competitor Assay Red (Product Code No. PV4293), is a fluorescence polarisation (FP)—based competition assay which measures if test compound can displace a fluorescently-labelled tracer compound. If the test compound binds to the AR-LBD it will prevent the formation of the receptor/tracer complex, which will result in a low polarisation value.
The assay was performed as follows with all reagent additions carried out using the Thermo Scientific Matrix PlateMate: • 1. Acoustic dispense 120 nl of the test compound into a black low volume 384 well assay plates. • 2. Volumes of reagents are added to give the following final concentrations of assay components:—0.5 mM DTT, 2 nM fluormone, 12 nM AR-LBD in the Invitrogen Assay Buffer • 3. Dispense 15 μl of the assay mix into each well of the assay plate • 4. Cover the assay plate to protect the reagents from light and evaporation, and incubate at room temperature for 4-6 hours. • 5. Excite at […] and measure the fluorescent emission signal of each well at 590 nm in FP mode using the BMG PheraSTAR or other suitable plate reader.
Compounds were dosed directly from a compound source microplate containing serially diluted compound (4 wells containing 10 mM, 0.1 mM, 1 μM and 10 nM final compound respectively) to an assay microplate using an Labcyte Echo 550. The Echo 550 is a liquid handler that uses acoustic technology to perform direct microplate-to-microplate transfers of DMSO compound solutions and the system can be programmed to transfer multiple small nL volumes of compound from the different source plate wells to give the desired serial dilution of compound in the assay which is then back-filled to normalise the DMSO concentration across the dilution range. In total 120 nL of compound plus DMSO was added to each well and compounds tested in a 12-point concentration response format over a final compound concentration range of 100, 30, 10, 3, 1, 0.3, 0.1, 0.03, 0.01, 0.003, 0.001, 0.0001 μM, respectively.
FP dose response data obtained with each compound was exported into a suitable software package (such as Origin) to perform curve fitting analysis. Competitive AR binding may be expressed as an IC50 value. This is determined by calculation of the concentration of compound that is required to give a 50% reduction in tracer compound binding to AR-LBD.
With `CC(=O)N1CCN(CCCOc2ccc(C3CCN(C4=Nn5c(nnc5C(F)(F)F)CC4)CC3)cc2)CC1` [Example 4.1, 6-[4-[4-[3-(4-acetylpiperazin-1-yl)propoxy]phenyl]piperidin-1-yl]-3-(trifluoromethyl)-7,8-dihydro[1,2,4]triazolo[4,3-b]pyridazine], the IC50 was determined as 23.8 µM.
The value for `CC(=O)N1CCN(CCOc2ccc(C3CCN(C4=Nn5c(nnc5C(F)(F)F)CC4)CC3)cc2)CC1` [Example 5.1, 6-(4-{4-[2-(4-acetylpiperazin-1-yl)ethoxy]phenyl}piperidin-1-yl)-3-(trifluoromethyl)-7,8-dihydro[1,2,4]triazolo[4,3-b]pyridazine] was 22.9 µM; that for `CN1CCN(CCOc2ccc(C3CCN(C4=Nn5c(nnc5C(F)(F)F)CC4)CC3)cc2)CC1=O` [Example 37, 1-methyl-4-[2-(4-{1-[3-(trifluoromethyl)-7,8-dihydro[1,2,4]triazolo[4,3-b]pyridazin-6-yl]piperidin-4-yl}phenoxy)ethyl]piperazin-2-one] was 61.9 µM; that for `CC(=O)N1CCN(CCOc2ccc(C3CCN(C4=Nn5c(nnc5C(F)(F)F)CC4)CC3)cc2)C[C@H]1C` [Example 51, 6-[4-(4-{2-[(3R)-4-acetyl-3-methylpiperazin-1-yl]ethoxy}phenyl)piperidin-1-yl]-3-(trifluoromethyl)-7,8-dihydro[1,2,4]triazolo[4,3-b]pyridazine] was 30.3 µM.
